Patent US20130131008A1, “LIPOPHILIC MONOPHOSPHORYLATED DERIVATIVES AND NANOPARTICLES” (BOARD OF REGENTS, THE UNIVERSITY OF TEXAS SYSTEM, priority 2011, published 2013)
Read-outs that look alike come from different tables or passages of the source.

Experiments:
CCRF-CEM cells = assay: In vitro cytotoxicity assay (MTT), 72 h; format: cell-based, human; conditions: Homo sapiens, CCRF-CEM, 72 h incubation
Text: (§1) Human leukemia cell line CCRF-CEM (CCL-119), human pancreatic cancer cell lines PANC-1 (CRL-1469), MIA PaCa-2 (CRL-1420), and BxPC-3 (CRL-1687), human breast adenocarcinoma cell line MCF-7 (HTB-22), and mouse lung cancer cell line TC-1 (CRL-2785) were from the American Type Culture Collection (Rockville, Md.). CCRF-CEM-AraC-8C cells (hENT1 deficient) and CCRF-CEM/dCK^−/− cells (dCK deficient) were kindly provided by Dr. Buddy Ullmann (Oregon Health & Science University, Portland, Oreg.) and Dr. Margaret Black (Washington State University, Pullman, Wash.), respectively. L1210 wt and L1210 10K were kindly supplied by Dr. Lars Petter Jordheim (Université Claude Bernard Lyon I, Lyon, France). TC-1-GR cells were previously developed in our lab. CCRF-CEM, CCRF-CEM-AraC-8C, CCRF-CEM/dCK^−/−, L1210 wt, L1210 10K, TC-1, and TC-1-GR cells were cultured in RPMI 1640 medium. MCF-7 and PANC-1 cells were cultured in Dulbecco's modified Eagle medium (DMEM), MIA PaCa-2 cells were cultured in DMEM medium with 2.5% horse serum. All media were supplemented with 10% fetal bovine serum (FBS), 100 U/mL of penicillin, and 100 μg/mL of streptomycin (all from Invitrogen, Carlsbad, Calif.).
(§2) Cells (5,000/well) were seeded in 96-well plates. After overnight incubation, they were treated with various concentrations of gemcitabine HCl, gemcitabine derivatives, or gemcitabine derivatives in nanoparticles at 37° C., 5% CO2. TC-1 and TC-1-GR cells were incubated for 48 h. CCRF-CEM, CCRF-CEM-AraC-8C, CCRF-CEM/dCK^−/−, L1210 wt, L1210 10K, and MCF-7 cells were incubated for 72 h, and MIA PaCa-2 and PANC-1 for 96 h. Gemcitabine HCl was dissolved in phosphate-buffered saline (PBS), and gemcitabine derivatives were dissolved in dimethyl sulfoxide (DMSO). […] The number of viable cells after the incubation was determined using an MTT assay. Briefly, 3-(4,5-dimethylthiazol-2-yl)-2,5-diphenyltetrazolium bromide (20 μl, 5 mg/mL) was added in each well and incubated for 3 h. Formazan crystals were solubilized with acidified isopropanol (150 μl) (for CCRF-CEM, CCRF-CEM-AraC-8C, CCRF-CEM/dCK^−/−, L1210 wt, and L1210 10K cells) or DMSO (150 μl) (for TC-1, TC-1-GR, MCF-7, PANC-1, and MIA PaCa-2). Absorbance was measured using a BioTek Synergy™ HT Multi-Mode Microplate Reader (BioTek Instruments, Winooski, Vt.) at 570 nm and 630 nm. The fraction of affected (dead) cells (Fa) and the fraction of unaffected (live) cells (Fu) at every dose were calculated, and the Log(Fa/Fu) values were plotted against the Log(concentration of gemcitabine). IC50 was the dose at Log(Fa/Fu)=0, See e.g., Chou, T. C. & Talalay, P., 1984, Adv. Enzyme Regul. 22:27-55. The experiment was repeated at least three times.

L1210 wt cells = assay: In vitro cytotoxicity assay (MTT), 72 h; format: cell-based, murine; conditions: Mus musculus, 72 h incubation
Text: as §1, with “MCF-7 and PANC-1 cells were cultured in Dulbecco's modified Eagle medium (DMEM), MIA PaCa-2 cells were cultured in DMEM medium with 2.5% horse serum. All media were supplemented with 10% fetal bovine serum (FBS), 100 U/mL of penicillin, and 100 μg/mL of streptomycin (all from Invitrogen, Carlsbad, Calif.).” left out
Cells (5,000/well) were seeded in 96-well plates. […] The number of viable cells after the incubation was determined using an MTT assay. […] Absorbance was measured using a BioTek Synergy™ HT Multi-Mode Microplate Reader (BioTek Instruments, Winooski, Vt.) at 570 nm and 630 nm. The fraction of affected (dead) cells (Fa) and the fraction of unaffected (live) cells (Fu) at every dose were calculated, and the Log(Fa/Fu) values were plotted against the Log(concentration of gemcitabine). […]

L1210 10K cells = assay: In vitro cytotoxicity assay (MTT), 72 h, dCK deficient cells; format: cell-based, murine
Text: as §1
Cells (5,000/well) were seeded in 96-well plates. After overnight incubation, they were treated with various concentrations of gemcitabine HCl, gemcitabine derivatives, or gemcitabine derivatives in nanoparticles at 37° C., 5% CO2. TC-1 and TC-1-GR cells were incubated for 48 h. CCRF-CEM, CCRF-CEM-AraC-8C, CCRF-CEM/dCK^−/−, L1210 wt, L1210 10K, and MCF-7 cells were incubated for 72 h, and MIA PaCa-2 and PANC-1 for 96 h. […] The number of viable cells after the incubation was determined using an MTT assay. […] Absorbance was measured using a BioTek Synergy™ HT Multi-Mode Microplate Reader (BioTek Instruments, Winooski, Vt.) at 570 nm and 630 nm. The fraction of affected (dead) cells (Fa) and the fraction of unaffected (live) cells (Fu) at every dose were calculated, and the Log(Fa/Fu) values were plotted against the Log(concentration of gemcitabine). […]

TC-1 cells = assay: In vitro cytotoxicity assay (MTT), 48 h; format: cell-based; conditions: Mus musculus, TC-1, 48 h incubation
Text: as §1, §2

TC-1-GR cells = assay: cells; format: cell-based
Text: as §1, §2

MIA PaCa-2 cells = assay: In vitro cytotoxicity assay (MTT), 96 h; format: cell-based, human; conditions: Homo sapiens, MIA PaCa-2, 96 h incubation
Text: as §1, §2

PANC-1 cells [1] = assay: In vitro cytotoxicity assay (MTT), 96 h, RRM2 over-expressing cells; format: cell-based, human; conditions: for Ratio of IC50 in PANC-1 to that in MIA PaCa-2: HCl
Text: as §1, §2

CCRF-CEM-AraC-8C cells = assay: In vitro cytotoxicity assay (MTT), 72 h, hENT1 deficient cells; format: cell-based, human; conditions: for Ratio of IC50 in CCRF-CEM-AraC-8C to that in CCRF-CEM: HCl
Text: as §1, §2

B16-F10 melanoma tumor = assay: Antitumor activity of GemC18/PEG-C18 micelles in mice with B16-F10 tumors (Example 20); format: in vivo, mouse; conditions: C57BL/6 mice, tail vein injection, 0.283 mg GemHCl or molar equivalent GemC18; 2 doses (micelles 3 doses), 3 days apart
Description: The in vivo antitumor activity of GemC18/PEG-C18 micelles was evaluated in C57BL/6 mice with subcutaneously inoculated B16-F10 cells (5.0×10^5/mouse) in the right flank. Treatments were given 6 days after tumor cell inoculation by tail vein injection with normal saline, Gemcitabine HCl (GemHCl) solution, GemC18 solution, blank PEG-C18 micelles, or GemC18/PEG-C18 micelles. The dose was 0.283 mg of GemHCl or molar equivalent amount of GemC18. All groups received a second dose three days after the first dose, while the GemC18/PEG-C18 micelle group also received a third dose 3 days after the second dose. Tumor sizes were measured with calipers in two perpendicular diameters every day and reported as tumor volume (V=½ [a×b^2], a=longer diameter, b=shorter diameter).

PANC-1 cells [2] = conditions: literature value; read-out: IC50 in PANC-1 cells reported by Duxbury et al.; cited from earlier work
[3] = IC50 of gemcitabine HCl divided by that of the derivatives or derivatives in nanoparticles

Cl.Nc1ccn([C@@H]2O[C@H](CO)[C@@H](O)C2(F)F)c(=O)n1 [Gemcitabine HCl, 2′,2′-difluorodeoxycytidine HCl, reference compound]
IC50 (CCRF-CEM cells): 2.9 ± 1.8 nM
IC50 (L1210 wt cells): 1.3 ± 0.3 nM
Ratio of IC50 in L1210 10K to that in L1210 wt (L1210 10K cells): 17,046
Ratio of IC50 values in L1210 10K cells (L1210 10K cells; IC50 of gemcitabine HCl divided by that of the nanoparticles): 1
IC50 (L1210 10K cells; Mus musculus, L1210, MTT, 72 h incubation, dCK deficient): 22200 ± 3700 nM
IC50 (TC-1 cells): 14.7 ± 2.8 nM
Ratio of IC50 in TC-1-GR to that in TC-1 (TC-1-GR cells): 2,497
Ratio of IC50 values in TC-1-GR cells (TC-1-GR cells; [3]): 1
IC50 (TC-1-GR cells; Mus musculus, MTT, 48 h incubation, RRM1 over-expressing): 36700 ± 5100 nM
IC50 (MIA PaCa-2 cells): 49.7 ± 17.7 nM
Ratio of IC50 in PANC-1 to that in MIA PaCa-2 (PANC-1 cells [1]): >8,000
IC50 (PANC-1 cells [1]; Homo sapiens, PANC-1, MTT, 96 h incubation, RRM2 over-expressing): > 400000 nM
PANC-1 cells still alive (PANC-1 cells [1]; after 96 h of incubation with 400 μM): more than 50%
Ratio of IC50 in PANC-1 to that in MIA PaCa-2 (PANC-1 cells [1]; listed as gemcitabine HCl): more than 8,000
Ratio of IC50 in CCRF-CEM-AraC-8C to that in CCRF-CEM (CCRF-CEM-AraC-8C cells): 333
IC50 (CCRF-CEM-AraC-8C cells; Homo sapiens, MTT, 72 h incubation, hENT1 deficient): 998.8 ± 9.4 nM
Ratio of IC50 values in CEM-AraC-8C cells (CCRF-CEM-AraC-8C cells; [3]): 1
Ratio of IC50 in CCRF-CEM-AraC-8C to that in CCRF-CEM (CCRF-CEM-AraC-8C cells; listed as gemcitabine HCl): 344
B16-F10 tumor growth (tumor volume) (B16-F10 melanoma tumor): not significant different from that in mice that received normal saline
IC50 (PANC-1 cells [2]): 50 nM
